Structures can show the parent of a compound that is named as a salt.
Tests used:
[1] = in alcohol; cited from earlier work
[2] = Redissolution in water of evaporated salt residue, pH and taste; assay type: physicochemical
Protocol: The meglumine salt of ibuprofen was formed by dissolving 10 grams of Ibuprofen, USP, in 330 milliliters of Alcohol, USP to which was added 10 grams of Meglumine, USP. The ibuprofen-meglumine molar ratio was 1:1.0566.

Compound	meglumine alcohol solubility limit [1] [grams in 100 ml]	ibuprofen concentration of clear solution as the meglumine salt ([2]; 740 milligrams of residue in 7.5 milliliters of water, 200 mg/5ml)	pH of salt solution ([2]; approximately 4% w/v ibuprofen in water)
CNC[C@H](O)[C@@H](O)[C@H](O)[C@H](O)CO [meglumine, Meglumine]	1.2		
CC(C)Cc1ccc(C(C)C(=O)O)cc1 (stereo not drawn) [meglumine ibuprofen salt]		approximately 4 % w/v	8.35

— US5028625A, “Acid addition salt of ibuprofen and meglumine” (priority 1989, dated 1991)
